Assay results from US8084431B2, “Method for inhibiting activation of macrophages, inhibiting formation of osteoclasts, inhibiting function of osteoclasts, and/or activating osteoblasts” (China Medical University, priority 2008, dated 2011).
Marks after values point to notes of the source that are not given here.

Assays:
macrophages RAW 264.7 = experiment: NO release of LPS-induced macrophages RAW 264.7 (Griess reagent); format: cell-based; settings: 24 hours
Procedure: (§1) 24 hours later, the supernatant was collected, and the content of nitric oxide was determined with a Griess reagent (Sigma). After macrophages RAW 264.7 were scratched off the culture plates, proteins were extracted, and then the expression of nitric oxide synthase (iNOs), p65, and p50 (nuclear factor kappa B or NF-κB, transcription factor) was analyzed with the western blot method.

[1] = tested on: nitric oxide synthase (iNOs), p65, and p50 (NF-κB); experiment: Western blot of iNOs, p65 and p50 in LPS-induced macrophages RAW 264.7; format: cell-based; settings: kinsenoside 10, 50, 100 μM
Procedure: as §1

[2] = tested on: ICR mice administrated with lipopolysaccharides; experiment: LPS-induced inflammatory cytokines in the blood of ICR mice (ELISA); format: in vivo; settings: LPS 40 mg/kg, 1 hour
Procedure: ICR mice were intraperitoneally administrated with various dosages (100 mg/kg or 300 mg/kg) of kinsenoside. 30 minutes later, the ICR mice were intraperitoneally administrated with 40 mg/kg of lipopolysaccharides. 1 hour later, the blood of the ICR mice was collected from the retro-orbital sinus, and the concentrations of TNF-α and IL-1β were determined with an ELISA (enzyme linked immunosorbent assay) reagent (eBioscience, Boston, Mass.).

[3] = tested on: ICR mice administrated with lipopolysaccharides; experiment: Septic shock death of ICR mice induced by high dosage of lipopolysaccharides; format: in vivo; settings: kinsenoside 100 or 300 mg/kg intraperitoneal, LPS 80 mg/kg, FIG. 4
Procedure: ICR mice were intraperitoneally administrated with various dosages (100 mg/kg or 300 mg/kg) of kinsenoside. 30 minutes later, the ICR mice were intraperitoneally administrated with 80 mg/kg of lipopolysaccharides, and the death rate of the ICR mice within 72 hours was observed.

[4] = tested on: BALB/c mice with collagen-induced rheumatoid arthritis; experiment: Collagen-induced rheumatoid arthritis of BALB/c mice; format: in vivo; settings: for CD4/278 (ratio of Th2 cells) / CD19/45 (ratio of B cells) / the number of lymphocytes: inguinal lymph nodes; for IgE / IgG1 / TNF-α: serum
Procedure: BALB/c mice were purchased from the National Laboratory Animal Center, Taiwan. 200 μg of type-IT collagen (Sigma) was subcutaneously injected into the tails of the BALB/c mice to induce the rheumatoid arthritis, wherein type-II collagen was emulsified with a Freund's complete adjuvant (Sigma) previously. At the […], 200 μg of type-II collagen was subcutaneously injected into the tails of the BALB/c mice again, and type-II collagen was emulsified with a Freund's incomplete adjuvant (Sigma) previously. From the day of the second injection, the BALB/c mice were administrated orally with kinsenoside (100 or 300 mg/kg) daily for 21 days. After 21 days, the BALB/c mice were sacrificed, and the blood, inguinal lymph nodes, and soles comprising joints of the BALB/c mice were collected for assay.
The concentrations of TNF-α and antibodies IgE and IgG1 in the serum were determined with ELISA method. Antibodies IgE and IgG1 reagents were purchased form Bethyl, Montgomery, Tex., USA.
Lymph nodes were taken from the both sides of the groins of the BALB/c mice, and were sieved to produce a single suspended cell line. The number of lymphocytes was determined with a flow cytometer. In addition, B cells and Th2 cells were stained with antibodies CD19/45 and CD4/278 (eBioscience) to obtain the ratio of B cells and Th2 cells.
The mRNAs were extracted from the right soles and joints of the mice, and the expression of the mRNAs of TNF-α was analyzed with RT-PCR (Reverse Transcription-Polymerase Chain Reaction).

MC3T3-E1 cells [5] = experiment: Survival rate of osteoblast precursor cells MC3T3-E1 (MTS); format: cell-based; settings: 3 days; for survival rate Experimental Group VI: with Vitamin C and β-glycerophosphatase; for survival rate Experimental Group V: without differentiation inducers
Procedure: MC3T3-E1 cells (American Type Culture Collection, Manassas, Va., USA) are the precursor cells of osteoblasts. A suitable differentiation inducer can be added into culture plates containing MC3T3-E1 cells to observe the later stage of the differentiation process of osteoblasts.
Besides various concentrations of kinsenoside as the above experiment, […] MC3T3-E1 cells, and the MC3T3-E1 cells were incubated for 3 days.

MC3T3-E1 cells [6] = experiment: Alkaline phosphatase activity of MC3T3-E1 cells; format: cell-based
Procedure: ALP (alkaline phosphatase) is a molecular indicator or molecular marker for the early stage of the activation of the precursor cells of osteoblasts, and according to the activity of ALP, the activation situation of the precursor cells of osteoblasts can observed. […] The MC3T3-E1 cells were incubated for 3, 5, and 10 days respectively, and then proteins in the cells were extracted. A p-nitrophenyl phosphate liquid substrate system reagent (Sigma) was used to determine the activity of ALP, and the result is shown in Table 13.

ovariectomized ICR mice = experiment: Osteoporosis of ovariectomized ICR mice; format: in vivo; settings: for bone volume/tissue volume / the number of trabecula: femur, micro computed tomography; for bone volume/tissue volume / the number of trabecula / CTx / osteocalcin: 3 weeks; for CTx / osteocalcin: serum
Procedure: First, the ovaries of ICR mice were removed. After 3 days, the ICR mice were administrated with various dosages (0, 100, and 300 mg/kg) of kinsenoside, respectively. Herein, the unit “mg/kg” means that the dosage (mg) required for each kilogram of the body weight of an animal. After 3 weeks, the ICR mice were sacrificed. ELISA was used to determine the content of osteocalcin and C-terminal cross-lined telopeptides of type I collagen (CTx) in serum. The reagents for determining osteocalcin and CTx were purchased from IDS Nordic A/S, Herlev, Danmarkids. The femurs of the sacrificed ICR mice were taken, and were photographed by a micro computed tomography (SkyScan 1076, Kontizh, Belgium). The computerized axial tomography is shown in FIG. 10, and the ratio of bone volume to tissue volume and the number of trabecula were analyzed with analysis software. Then, the femurs were decalcified and were frozen sectioned. Osteoclasts in the femurs were stained with a TRAP stain reagent.

[7] = kinsenoside 100 mg/kg intraperitoneal
[8] = kinsenoside 300 mg/kg intraperitoneal
[9] = kinsenoside 100 mg/kg oral daily for 21 days
[10] = kinsenoside 300 mg/kg oral daily for 21 days

O=C1C[C@@H](OC2OC(CO)C(O)C(O)C2O)CO1 (stereo partly drawn) [kinsenoside, 3-(R)-3-β-D-glucopyranosyloxy-butanolide]
the concentration of NO (macrophages RAW 264.7; kinsenoside 10 μM): 15.5 ± 3.7 µM
the concentration of NO (macrophages RAW 264.7; kinsenoside 50 μM): 12.0 ± 3.1 µM
the concentration of NO (macrophages RAW 264.7; kinsenoside 100 μM): 8.4 ± 1.7 µM
expression of nitric oxide synthase ([1]; FIG. 2A and 2B): reduce the expression of nitric oxide synthase
p50 and p65 entering into the nuclei ([1]; FIG. 3A to 3C): this effect can be inhibited by kinsenoside
IL-1β [2, 7]: 371.1 ± 127.8 ng/mL
TNF-α [2, 7]: 680.5 ± 160.2 ng/mL
IL-1β [2, 8]: 272.6 ± 102.6 ng/mL
TNF-α [2, 8]: 513.4 ± 155.0 ng/mL
death rate of the ICR mice within 72 hours [3]: inhibits the death rate
CD4/278 (ratio of Th2 cells) [4, 9]: 8.0 ± 0.6 %
CD19/45 (ratio of B cells) [4, 9]: 19.3 ± 2.1 %
the number of lymphocytes [4, 9]: 3.3 ± 0.6* 10^5/ml
CD4/278 (ratio of Th2 cells) [4, 10]: 7.6 ± 0.6 %
CD19/45 (ratio of B cells) [4, 10]: 18.6 ± 3.6 %
the number of lymphocytes [4, 10]: 2.8 ± 1.0*** 10^5/ml
expression of mRNAs of TNF-α ([4]; right soles and joints, RT-PCR, kinsenoside 100 or 300 mg/kg oral, FIG. 5A and 5B): alleviates the expression of mRNAs of TNF-α
IgE [4, 9]: 0.15 ± 0.03 absorbance
IgG1 [4, 9]: 2.44 ± 0.05 absorbance
TNF-α [4, 9]: 825.9 ± 155.4* 10^−12 g/ml
IgE [4, 10]: 0.13 ± 0.04 absorbance
IgG1 [4, 10]: 2.41 ± 0.10 absorbance
TNF-α [4, 10]: 790.0 ± 194.1* 10^−12 g/ml
survival rate Experimental Group VI (MC3T3-E1 cells [5]; 10 nM): 98.7 ± 7.8%
survival rate Experimental Group V (MC3T3-E1 cells [5]; 10 nM): 91.5 ± 3.0 %
survival rate Experimental Group VI (MC3T3-E1 cells [5]; 100 nM): 95.3 ± 3.3%
survival rate Experimental Group V (MC3T3-E1 cells [5]; 100 nM): 90.8 ± 2.9 %
survival rate Experimental Group VI (MC3T3-E1 cells [5]; 1000 nM): 95.0 ± 4.5%
survival rate Experimental Group V (MC3T3-E1 cells [5]; 1000 nM): 89.5 ± 6.0 %
ALP activity (MC3T3-E1 cells [6]; 10 nM, 3 days): 112 ± 11%
ALP activity (MC3T3-E1 cells [6]; 10 nM, 5 days): 120 ± 18%
ALP activity (MC3T3-E1 cells [6]; 10 nM, 10 days): 125 ± 6%
ALP activity (MC3T3-E1 cells [6]; 100 nM, 3 days): 124 ± 17%
ALP activity (MC3T3-E1 cells [6]; 100 nM, 5 days): 126 ± 17%
ALP activity (MC3T3-E1 cells [6]; 100 nM, 10 days): 137 ± 16%
ALP activity (MC3T3-E1 cells [6]; 1000 nM, 3 days): 130 ± 21%
ALP activity (MC3T3-E1 cells [6]; 1000 nM, 5 days): 132 ± 16 %
ALP activity (MC3T3-E1 cells [6]; 1000 nM, 10 days): 150 ± 23 %
bone tissues of the femurs in micro computed tomography (ovariectomized ICR mice; compared to ICR mice that are not ovariectomized, FIG. 10): return to a normal state
bone volume/tissue volume (ovariectomized ICR mice; kinsenoside 100 mg/kg): 19.9 ± 1.5 %
the number of trabecula (ovariectomized ICR mice; kinsenoside 100 mg/kg): 12.2 ± 1.5 cm⁻¹
bone volume/tissue volume (ovariectomized ICR mice; kinsenoside 300 mg/kg): 21.2 ± 2.2 %
the number of trabecula (ovariectomized ICR mice; kinsenoside 300 mg/kg): 12.8 ± 1.5 cm⁻¹
CTx (ovariectomized ICR mice; kinsenoside 100 mg/kg): 29.7 ± 6.9 ng/mL
osteocalcin (ovariectomized ICR mice; kinsenoside 100 mg/kg): 191.2 ± 33.5 ng/mL
CTx (ovariectomized ICR mice; kinsenoside 300 mg/kg): 27.5 ± 3.1 ng/mL
osteocalcin (ovariectomized ICR mice; kinsenoside 300 mg/kg): 351.8 ± 80.5 ng/mL
